The results in this text go back to patent publication US20250282774A1, “FUSED RING COMPOUND” (SHANGHAI SHIJIANG BIOTECHNOLOGY CO., LTD., priority 2022, published 2025).

The test system of one assay is sh-DNMT1 NCI-H82 cell. The assay can be described thus: Cell viability (Promega CellTiter-Glo), sh-DNMT1 NCI-H82 cell. The format is cell-based. As to conditions: Homo sapiens, NCI-H82 cell with DNMT1 knocked down. An excerpt:
(§1) The expression of NNMT protein in NCI-H82 cell was overexpressed by inserting the NNMT gene into NCI-H82 cell using a viral vector, and the NNMT protein-overexpressing NCI-H82 cell (ov-NNMT NCI-H82 cell) was obtained. The expression of DNMT1 in NCI-H82 cell was knocked down by transfecting shRNA (the nucleotide sequence of shRNA was […] (SEQ ID No: 3)) using a viral vector, and the NCI-H82 cell with low expression of DNMT1 protein (sh-DNMT1 NCI-H82 cell) was obtained. The control NCI-H82 cell (Con-NCI-H82 cell) was obtained by transfecting NCI-H82 cell with empty virus vector without carrying NNMT gene and shRNA. The expressing content of NNMT protein and DNMT1 protein in the Con-NCI-H82 cell, the expressing content of NNMT protein in the ov-NNMT NCI-H82 cell, and the expressing content of DNMT1 protein in the sh-DNMT1 NCI-H82 cell were detected using Western Blot assay (as shown in FIG. 3 and FIG. 4), it could be seen from FIG. 3 and FIG. 4 that the NNMT protein was overexpressed in the ov-NNMT NCI-H82 cell and the expression of DNMT1 protein was knocked down (i.e, low expression) in the sh-DNMT1 NCI-H82 cell compared with the expression level of NNMT protein and DNMT1 protein in the Con-NCI-H82 cell.
In general terms: ATP-based viability assays read luminescence as a measure of living cells.

A further assay relates to ov-NNMT NCI-H82 cell. In words: Cell viability (Promega CellTiter-Glo), ov-NNMT NCI-H82 cell. The format is cell-based. As to conditions: Homo sapiens, NCI-H82 cell overexpressing NNMT protein.
Source text: as §1

The subject of another assay is mPTP-inactive Daoy cell. The assay can be described thus: Cell viability (Promega CellTiter-Glo), mPTP-inactive Daoy cell. It counts as cell-based. Particulars: Homo sapiens, Daoy cell transfected with PPIF shRNA vector.
A further assay deals with Con-NCI-H82 cell. The assay can be described thus: Cell viability (Promega CellTiter-Glo), Con-NCI-H82 cell. As to conditions: Homo sapiens, NCI-H82 cell transfected with empty virus vector. The format is cell-based.
Source text: as §1

A further assay deals with mPTP-active Daoy cell. The assay can be described thus: Cell viability (Promega CellTiter-Glo), mPTP-active Daoy cell. It counts as cell-based. Particulars: Homo sapiens, Daoy cell transfected with empty virus vector.
A further assay concerns Daoy cell. The assay can be described thus: Mitochondria membrane potential difference by TMRM in Daoy cell (mPTP activity). The format is cell-based, human. Particulars: H2O2 +, CsA −. From the text:
For cells with active mitochondria permeability transition pore, adding peroxide (such as H2O2) could increase the activity of mitochondria permeability transition pore, resulting in a decrease in mitochondria membrane potential.

Assay [1] has as its system Daoy cell transfected with empty virus vector without carrying shRNA. The assay can be described thus: Mitochondria membrane potential difference by TMRM in Daoy cell transfected with empty virus vector (Con shRNA). The format is cell-based, human. As to conditions: H2O2 +, CsA −.
Assay [2] concerns Daoy cell transfected with virus vector carrying shRNA that could specifically induce the degradation of PPIF mRNA. In words: Mitochondria membrane potential difference by TMRM in Daoy cell transfected with PPIF shRNA. It counts as cell-based, human. Particulars: H2O2 +, CsA −.

In the case of `COc1ccc2cc3[n+](cc2c1N1CCCC(C)C1)CCc1cc2c(cc1-3)OCO2` (stereo not drawn) [Compound AB35530], the IC50 (as a rule, the point on the concentration scale where inhibition reaches its midpoint) came out at 1.76 µM with sh-DNMT1 NCI-H82 cell; 0.72 µM in the assay on ov-NNMT NCI-H82 cell; 0.55 µM with mPTP-inactive Daoy cell; 0.32 µM in the assay on Con-NCI-H82 cell; 2.43 µM with mPTP-active Daoy cell.
For `COc1ccc2cc3[n+](cc2c1N1CCC(C(F)(F)F)CC1)CCc1cc2c(cc1-3)OCCO2` [Compound SJ0010] the same measures were 2.54 µM, 0.89 µM, 2.09 µM, 0.45 µM and 6.33 µM.
For `COc1ccc2cc3[n+](cc2c1N1CCC(C)CC1)CCc1cc2c(cc1-3)OCO2` [Compound SJ0001] the same measures were 1.12 µM, 0.58 µM, 0.52 µM, 0.14 µM and 1.35 µM.
In the same order, the values of `COc1ccc2cc3[n+](cc2c1N1CCCCC1)CCc1cc2c(cc1-3)OCO2` [Compound AB36492] are 1.46 µM, 0.68 µM, 0.46 µM, 0.21 µM and 1.65 µM.
As to `COc1ccc2cc3[n+](cc2c1N1CCC(C(F)(F)F)CC1)CCc1cc2c(cc1-3)OCO2` [Compound SJ0002], the IC50 is 2.03 µM with sh-DNMT1 NCI-H82 cell; 0.88 µM in the assay on ov-NNMT NCI-H82 cell; 1.56 µM in the assay with mPTP-inactive Daoy cell; 0.32 µM in the assay on Con-NCI-H82 cell; 5.13 µM with mPTP-active Daoy cell.
For `COc1ccc2cc3[n+](cc2c1N1CCCCCC1)CCc1cc2c(cc1-3)OCO2` [Compound AB36413] the same measures were 1.58 µM, 0.85 µM, 0.32 µM, 0.29 µM and 1.26 µM.
For `COc1ccc2cc3[n+](cc2c1N1CCOC(C)C1)CCc1cc2c(cc1-3)OCO2` (stereo not drawn) [Compound AB35540] the same measures were 19 µM, 10.4 µM, 5.85 µM, 5.05 µM and 15.7 µM.
For `COc1ccc2cc3[n+](cc2c1N1CCC(C)CC1)CCc1cc2c(cc1-3)OCCO2` [Compound SJ0009] the same measures were 1.33 µM, 0.55 µM, 0.47 µM, 0.18 µM and 2.06 µM.
Consider `COc1ccc2cc3[n+](cc2c1N1CCC(F)(F)CC1)CCc1cc2c(cc1-3)OCO2` [Compound AB35556], for which the IC50 amounted to 9.86 µM in the assay with sh-DNMT1 NCI-H82 cell; 5.85 µM with ov-NNMT NCI-H82 cell; 3.14 µM in the assay with mPTP-inactive Daoy cell; 2.57 µM with Con-NCI-H82 cell; 7.31 µM in the assay on mPTP-active Daoy cell.
With `OO` [Compound H2O2, H2O2], in the assay with Daoy cell, the “Relative TMRM signal intensity (%) in Daoy cell after different treatments, mean value” turned out to be 82%. Also, the “Relative TMRM signal intensity (%), mean value” in assay [1] turned out to be 79%; in assay [2], 95%.
Turning to `COc1ccc2cc3[n+](cc2c1N1CCC(F)CC1)CCc1cc2c(cc1-3)OCO2` [Compound AB35551], the IC50 in the assay on sh-DNMT1 NCI-H82 cell came out at 5.96 µM; in the assay on ov-NNMT NCI-H82 cell, 3.48 µM; in the assay with mPTP-inactive Daoy cell, 1.97 µM; in the assay on Con-NCI-H82 cell, 1.57 µM; in the assay with mPTP-active Daoy cell it was 5.82 µM.
As to `COc1ccc2cc3[n+](cc2c1N1CCC(Cl)CC1)CCc1cc2c(cc1-3)OCO2` [Compound SJ0004], the IC50 in the assay on sh-DNMT1 NCI-H82 cell was determined as 2.96 µM; in the assay on ov-NNMT NCI-H82 cell, 1.94 µM; with mPTP-inactive Daoy cell, 2.41 µM; in the assay on Con-NCI-H82 cell, 0.74 µM; in the assay with mPTP-active Daoy cell it was 7.45 µM.
Turning to `COc1ccc2cc3[n+](cc2c1N1CCCCC1C)CCc1cc2c(cc1-3)OCO2` (stereo not drawn) [Compound AB35528], the IC50 in the assay with sh-DNMT1 NCI-H82 cell came out at 1.48 µM; in the assay with ov-NNMT NCI-H82 cell, 0.68 µM; in the assay on mPTP-inactive Daoy cell, 0.42 µM; in the assay with Con-NCI-H82 cell, 0.27 µM; with mPTP-active Daoy cell, 1.49 µM.
As for `COc1ccc2cc3[n+](cc2c1N1CCC2(CCO2)CC1)CCc1cc2c(cc1-3)OCO2` [Compound AB35575], the IC50 in the assay on sh-DNMT1 NCI-H82 cell stood at 14.8 µM; in the assay on ov-NNMT NCI-H82 cell, 8.96 µM; in the assay on mPTP-inactive Daoy cell it was 5.85 µM; with Con-NCI-H82 cell, 4.07 µM; with mPTP-active Daoy cell, 26.7 µM.
Turning to `COc1ccc2cc3[n+](cc2c1N1CCC(Cl)CC1)CCc1cc2c(cc1-3)OCCO2` [Compound SJ0012], the IC50 in the assay with sh-DNMT1 NCI-H82 cell stood at 3.88 µM; in the assay with ov-NNMT NCI-H82 cell, 2.35 µM; in the assay with mPTP-inactive Daoy cell, 2.08 µM; in the assay on Con-NCI-H82 cell it was 0.97 µM; in the assay on mPTP-active Daoy cell it was 6.96 µM.
Consider `COc1ccc2cc3[n+](cc2c1N1CCCC1)CCc1cc2c(cc1-3)OCO2` [Compound AB35555], for which the IC50 in the assay on sh-DNMT1 NCI-H82 cell was found to be 2.19 µM; in the assay with ov-NNMT NCI-H82 cell it was 1.02 µM; with mPTP-inactive Daoy cell, 0.45 µM; in the assay with Con-NCI-H82 cell, 0.37 µM; in the assay on mPTP-active Daoy cell, 1.58 µM.
